Data published in US10760110B2, “Antibiotic testing and screening system” (priority 2017, dated 2020).
Read-outs that look alike come from different tables or passages of the source.

System: K. pneumoniae NVT1001 strains with ESBL or AmpC β-lactamase plasmids
Assay: Etest MIC of β-lactams, OmpK35/36 loss, ΔramR and/or extended-spectrum β-lactamase and AmpC β-lactamase (Table 8)
Format: cell-based, Klebsiella pneumoniae
Settings: Klebsiella pneumoniae
Outline: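 Cloned resistance genes in pACYC177 or pACYC184 were electroporated into K. pneumoniae NVT1001. MICs were determined by Etest and rounded up to the next two-fold value. Ceftazidime and cefotaxime against the blaOXA-48 construct were also tested by CLSI broth microdilution, with breakpoints from CLSI 2017 (cephalothin CLSI 2015, moxifloxacin EUCAST 2017).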

[1] = CMY-2 on pACYC177, WT (NVT1001), read-out: MIC
[2] = CMY-2 on pACYC177, Δ35 (ΔompK35 mutant)
[3] = CMY-2 on pACYC177, Δ35/36 (ΔompK35/36 mutant)
[4] = CMY-2 on pACYC177, Δ36 (ΔompK36 mutant)
[5] = CMY-2 on pACYC177, ΔramR mutant
[6] = CMY-2 on pACYC177, ΔramRΔ35 (ΔramRΔompK35 mutant)
[7] = CMY-2 on pACYC177, ΔramRΔ35/36 (ΔramRΔompK35/36 mutant)
[8] = CMY-2 on pACYC177, ΔramRΔ36 (ΔramRΔompK36 mutant)
[9] = CTX-M-14 on pACYC177, WT (NVT1001), read-out: MIC
[10] = CTX-M-14 on pACYC177, Δ35 (ΔompK35 mutant)
[11] = CTX-M-14 on pACYC177, Δ35/36 (ΔompK35/36 mutant)
[12] = CTX-M-14 on pACYC177, Δ36 (ΔompK36 mutant)
[13] = CTX-M-14 on pACYC177, ΔramR mutant
[14] = CTX-M-14 on pACYC177, ΔramRΔ35 (ΔramRΔompK35 mutant)
[15] = CTX-M-14 on pACYC177, ΔramRΔ35/36 (ΔramRΔompK35/36 mutant)
[16] = CTX-M-14 on pACYC177, ΔramRΔ36 (ΔramRΔompK36 mutant)
[17] = CTX-M-15 on pACYC177, WT (NVT1001), read-out: MIC
[18] = CTX-M-15 on pACYC177, Δ35 (ΔompK35 mutant)
[19] = CTX-M-15 on pACYC177, Δ35/36 (ΔompK35/36 mutant)
[20] = CTX-M-15 on pACYC177, Δ36 (ΔompK36 mutant)
[21] = CTX-M-15 on pACYC177, ΔramR mutant
[22] = CTX-M-15 on pACYC177, ΔramRΔ35 (ΔramRΔompK35 mutant)
[23] = CTX-M-15 on pACYC177, ΔramRΔ35/36 (ΔramRΔompK35/36 mutant)
[24] = CTX-M-15 on pACYC177, ΔramRΔ36 (ΔramRΔompK36 mutant)
[25] = DHA-1-AmpR on pACYC177, WT (NVT1001), read-out: MIC
[26] = DHA-1-AmpR on pACYC177, Δ35 (ΔompK35 mutant)
[27] = DHA-1-AmpR on pACYC177, Δ35/36 (ΔompK35/36 mutant)
[28] = DHA-1-AmpR on pACYC177, Δ36 (ΔompK36 mutant)
[29] = DHA-1-AmpR on pACYC177, ΔramR mutant
[30] = DHA-1-AmpR on pACYC177, ΔramRΔ35 (ΔramRΔompK35 mutant)
[31] = DHA-1-AmpR on pACYC177, ΔramRΔ35/36 (ΔramRΔompK35/36 mutant)
[32] = DHA-1-AmpR on pACYC177, ΔramRΔ36 (ΔramRΔompK36 mutant)
[33] = SHV-12 on pACYC177, WT (NVT1001), read-out: MIC
[34] = SHV-12 on pACYC177, Δ35 (ΔompK35 mutant)
[35] = SHV-12 on pACYC177, Δ35/36 (ΔompK35/36 mutant)
[36] = SHV-12 on pACYC177, Δ36 (ΔompK36 mutant)
[37] = SHV-12 on pACYC177, ΔramR mutant
[38] = SHV-12 on pACYC177, ΔramRΔ35 (ΔramRΔompK35 mutant)
[39] = SHV-12 on pACYC177, ΔramRΔ35/36 (ΔramRΔompK35/36 mutant)
[40] = SHV-12 on pACYC177, ΔramRΔ36 (ΔramRΔompK36 mutant)
[41] = no supplemental plasmid, WT (NVT1001), read-out: MIC
[42] = no supplemental plasmid, Δ35 (ΔompK35 mutant)
[43] = no supplemental plasmid, Δ35/36 (ΔompK35/36 mutant)
[44] = no supplemental plasmid, Δ36 (ΔompK36 mutant)
[45] = no supplemental plasmid, ΔramR mutant
[46] = no supplemental plasmid, ΔramRΔ35 (ΔramRΔompK35 mutant)
[47] = no supplemental plasmid, ΔramRΔ35/36 (ΔramRΔompK35/36 mutant)
[48] = no supplemental plasmid, ΔramRΔ36 (ΔramRΔompK36 mutant)

CO/N=C(\C(=O)N[C@@H]1C(=O)N2C(C(=O)O)=C(COC(C)=O)CS[C@H]12)c1csc(N)n1 [Cefotaxime]
MIC [1]: 64 µg/mL | MIC [2]: 128 µg/mL | MIC [3]: > 256 µg/mL | MIC [4]: > 256 µg/mL | MIC [5]: 128 µg/mL | MIC [6]: 128 µg/mL | MIC [7]: > 256 µg/mL | MIC [8]: > 256 µg/mL | MIC [9]: 64 µg/mL | MIC [10]: 128 µg/mL | MIC [11]: > 256 µg/mL | MIC [12]: > 256 µg/mL | MIC [13]: 128 µg/mL | MIC [14]: 128 µg/mL | MIC [15]: > 256 µg/mL | MIC [16]: > 256 µg/mL | MIC [17]: > 256 µg/mL | MIC [18]: > 256 µg/mL | MIC [19]: > 256 µg/mL | MIC [20]: > 256 µg/mL | MIC [21]: > 256 µg/mL | MIC [22]: > 256 µg/mL | MIC [23]: > 256 µg/mL | MIC [24]: > 256 µg/mL | MIC [25]: 8 µg/mL | MIC [26]: 16 µg/mL | MIC [27]: 64 µg/mL | MIC [28]: 16 µg/mL | MIC [29]: 16 µg/mL | MIC [30]: 16 µg/mL | MIC [31]: 64 µg/mL | MIC [32]: 64 µg/mL | MIC [33]: 32 µg/mL | MIC [34]: 32 µg/mL | MIC [35]: > 256 µg/mL | MIC [36]: 32 µg/mL | MIC [37]: 64 µg/mL | MIC [38]: 64 µg/mL | MIC [39]: 256 µg/mL | MIC [40]: 256 µg/mL | MIC [41]: 0.06 µg/mL | MIC [42]: 0.125 µg/mL | MIC [43]: 2 µg/mL | MIC [44]: 0.25 µg/mL | MIC [45]: 1 µg/mL | MIC [46]: 1 µg/mL | MIC [47]: 4 µg/mL | MIC [48]: 4 µg/mL

CO/N=C(\C(=O)N[C@@H]1C(=O)N2C(C(=O)O)=C(COC(N)=O)CS[C@H]12)c1ccco1 [Cefuroxime]
MIC [1]: 256 µg/mL | MIC [2]: 256 µg/mL | MIC [3]: > 256 µg/mL | MIC [4]: > 256 µg/mL | MIC [5]: > 256 µg/mL | MIC [6]: > 256 µg/mL | MIC [7]: > 256 µg/mL | MIC [8]: > 256 µg/mL | MIC [9]: > 256 µg/mL | MIC [10]: > 256 µg/mL | MIC [11]: > 256 µg/mL | MIC [12]: > 256 µg/mL | MIC [13]: > 256 µg/mL | MIC [14]: > 256 µg/mL | MIC [15]: > 256 µg/mL | MIC [16]: > 256 µg/mL | MIC [17]: > 256 µg/mL | MIC [18]: > 256 µg/mL | MIC [19]: > 256 µg/mL | MIC [20]: > 256 µg/mL | MIC [21]: > 256 µg/mL | MIC [22]: > 256 µg/mL | MIC [23]: > 256 µg/mL | MIC [24]: > 256 µg/mL | MIC [25]: > 256 µg/mL | MIC [26]: > 256 µg/mL | MIC [27]: > 256 µg/mL | MIC [28]: > 256 µg/mL | MIC [29]: > 256 µg/mL | MIC [30]: > 256 µg/mL | MIC [31]: > 256 µg/mL | MIC [32]: > 256 µg/mL | MIC [33]: 64 µg/mL | MIC [34]: 64 µg/mL | MIC [35]: > 256 µg/mL | MIC [36]: 128 µg/mL | MIC [37]: 256 µg/mL | MIC [38]: 128 µg/mL | MIC [39]: > 256 µg/mL | MIC [40]: > 256 µg/mL | MIC [41]: 4 µg/mL | MIC [42]: 8 µg/mL | MIC [43]: 32 µg/mL | MIC [44]: 16 µg/mL | MIC [45]: 32 µg/mL | MIC [46]: 64 µg/mL | MIC [47]: 128 µg/mL | MIC [48]: > 256 µg/mL

CCO/N=C(\C(=O)N[C@@H]1C(=O)N2C(C(=O)[O-])=C(Sc3nc(-c4cc[n+](C)cc4)cs3)CS[C@H]12)c1nsc(N)n1 [Ceftaroline]
MIC [1]: 64 µg/mL | MIC [2]: 64 µg/mL | MIC [3]: > 256 µg/mL | MIC [4]: 256 µg/mL | MIC [5]: 64 µg/mL | MIC [6]: 64 µg/mL | MIC [7]: 128 µg/mL | MIC [8]: 256 µg/mL | MIC [9]: 128 µg/mL | MIC [10]: > 256 µg/mL | MIC [11]: > 256 µg/mL | MIC [12]: > 256 µg/mL | MIC [13]: > 256 µg/mL | MIC [14]: > 256 µg/mL | MIC [15]: > 256 µg/mL | MIC [16]: > 256 µg/mL | MIC [17]: > 256 µg/mL | MIC [18]: > 256 µg/mL | MIC [19]: > 256 µg/mL | MIC [20]: > 256 µg/mL | MIC [21]: > 256 µg/mL | MIC [22]: > 256 µg/mL | MIC [23]: > 256 µg/mL | MIC [24]: > 256 µg/mL | MIC [25]: 8 µg/mL | MIC [26]: 8 µg/mL | MIC [27]: 16 µg/mL | MIC [28]: 8 µg/mL | MIC [29]: 8 µg/mL | MIC [30]: 8 µg/mL | MIC [31]: 16 µg/mL | MIC [32]: 16 µg/mL | MIC [33]: 16 µg/mL | MIC [34]: 16 µg/mL | MIC [35]: 64 µg/mL | MIC [36]: 16 µg/mL | MIC [37]: 16 µg/mL | MIC [38]: 16 µg/mL | MIC [39]: 32 µg/mL | MIC [40]: 32 µg/mL | MIC [41]: 0.25 µg/mL | MIC [42]: 0.25 µg/mL | MIC [43]: 1 µg/mL | MIC [44]: 0.5 µg/mL | MIC [45]: 1 µg/mL | MIC [46]: 1 µg/mL | MIC [47]: 4 µg/mL | MIC [48]: 4 µg/mL
